These results are taken from US4188380A, “Surface active quaternary higher dialkyl phosphonium salt biocides and intermediates” (Exxon Research & Engineering Co., priority 1976, dated 1980).

Read-outs that look alike come from different tables or passages of the source.

The nature of series [1]: Interfacial tension in water-paraffin (Nujol) system, ASTM D-971. The format is physicochemical. Particulars: 25°. Here is the method:
(§1) To obtain standard data for estimating the surface activity of quaternary higher dialkyl phosphonium salts, the surface tensions of their water solutions and the interfacial tensions of their equilibriated solutions in water and a paraffinic hydrocarbon were determined as described by ASTM D-971-50.
(§2) Didodecyl dimethyl phosphonium chloride and, for comparison, octadecyl trimethyl phosphonium chloride were tested as described above, according to ASTM D-971. The surface tension towards air measurement used distilled water at 25°, which gives a base value of 72 dynes per cm. For interfacial tension measurements a water-paraffin (Nujol) system was used. Without any added surfactant, this has an interfacial tension of 52 dynes per cm. The interfacial tension measurements of the phosphonium chloride solutions were made after equal volumes of the two immiscible solvent and the given amount of salt were slowly stirred for 30 minutes to arrive at equilibrium concentrations of the salt.

Series [2] can be described thus: Surface tension of water solutions towards air, ASTM D-971. The format is physicochemical. To be noted: 25°. The method, then: as §1, §2
A further series relates to Pseudomonas aeruginosa. Briefly: Broth dilution minimum inhibitory concentration, Pseudomonas aeruginosa. The format is cell-based. To be noted: for MIC: Pseudomonas aeruginosa, read-out: Minimum Inhibitory Concentration, Pseudomonas aeruginosa. Here is the method: (§3) In the primary biocidal testing of the quaternary higher dialkyl phosphonium salts, broth dilution was used as the primary method to determine the minimum salt concentrations necessary for a complete inhibition of bacterial, fungal and algal growth. Typically, 2 ml per tube of trypticase soy broth was used as nutrient medium. Usually 10 mg of the phosphonium chloride was dissolved in 5 ml ethanol and this was then diluted to 10 ml with water to give an aqueous ethanol stock solution of […] concentration. The inoculum of the microorganism was one drop of a thousandfold diluted 24 hour culture which usually contained 1000 bacteria or 10,000 fungal or algal cells. To the inoculated broth media, different amounts of the experimental chemicals were administered. The media were then observed for visible growth after a period dependent on the type of the microorganism used. Bacterial growth or inhibition was observed after one or two days. Growths of fungi and algae were checked after 7 or 14 days. Observing a series of dilutions of the experimental chemical, minimum growth inhibitory, i.e., microbiostatic, concentrations (MIC) were determined.
(§4) A number of quaternary phosphonium chlorides characterized in Table I were broth dilution tested against an important gram negative bacterial organism, Pseudomonas aeruginosa; a common gram positive bacterium, Staphylococcus aureus, and a widespread fungus, Aspergillus niger, and a common algal organism, Chlorella vulgaris.

The subject of the next series is Staphylococcus aureus. The series is described as follows: Broth dilution minimum inhibitory concentration, Staphylococcus aureus. Particulars: read-out: Minimum Inhibitory Concentration, Staphylococcus aureus. The format is cell-based. Here is the method: as §3, §4
For orientation: Broth dilution looks for growth in wells or tubes with falling amounts of substance.

In a further series the test system is Aspergillus niger. Briefly: Broth dilution minimum inhibitory concentration, Aspergillus niger. The format is cell-based. To be noted: for MIC: Aspergillus niger, read-out: Minimum Inhibitory Concentration, Aspergillus niger. The method, then:
as §3, §4

The subject of the next series is Chlorella vulgaris. Briefly: Broth dilution minimum inhibitory concentration, Chlorella vulgaris. The format is cell-based. Particulars: read-out: Minimum Inhibitory Concentration, Chlorella vulgaris. The method, then:
as §3, §4

Another series deals with E. coli. The series is described as follows: AOAC Germicidal and Sanitizer Test, E. coli. The format is cell-based. To be noted: Escherichia coli. An excerpt:
(§5) To determine the effectiveness of a quaternary higher dialkyl phosphonium salt, i.e. didecyl dimethyl phosphonium chloride as a bactericide, the AOAC Germicidal and Sanitizer Test was used.

For the next series, the system named is Escherichia coli. The series is described as follows: Broth dilution minimum inhibitory concentration, Escherichia coli. The format is cell-based. The method, then: as §3
(§6) To test the breadth of the microbiocidal spectrum of didecyl dimethyl phosphonium chloride, minimum inhibitory concentrations (MIC's) were determined against several additional organisms in broth dilution tests with the following results: […]

In a further series the test system is Staph. aureus. The series is described as follows: AOAC Germicidal and Sanitizer Test, Staph. aureus. The format is cell-based. Particulars: Staphylococcus aureus.
Text: as §5

For the next series, the system named is Candida albicans. Briefly: Broth dilution minimum inhibitory concentration, Candida albicans. The format is cell-based. The method, then: as §3, §6
Another series deals with Salmonella typhosa. The series is described as follows: Broth dilution minimum inhibitory concentration, Salmonella typhosa. To be noted: Salmonella enterica. The format is cell-based. Here is the method:
as §3, §6

A short description of series [3]: Acute oral toxicity in Swiss albino mice. The format is in vivo. To be noted: mouse, in vivo, Swiss albino mice, read-out: median lethal toxicity, acute oral. The method, then:
(§7) The acute oral toxicity of didecyl dimethyl phosphonium chloride and dioctadecyl diethyl phosphonium chloride was determined using Swiss albino mice. The median lethal toxicities found were 350 and 2840 mg salt per body kg mice, respectively.

A further series has as its system mice. The series is described as follows: Acute oral toxicity in Swiss albino mice. The format is in vivo. The method, then:
as §7

For series [4], the system named is bacterial, fungal and algal growth. The series is described as follows: Microbiocidal activity in general (broth dilution). The format is cell-based. Here is the method:
as §3

With `CCCCCCCCCCCCCCCCCC[P+](C)(C)C.[Cl-]` [C18 H37 P^+ (CH3)3, octadecyl trimethyl phosphonium chloride, reference compound], the “Interfacial Tension of Water-Nujol” value in series [1] (0.010% salt) was 12 Dynes/cm; in [1] (0.100% salt) it was 10 Dynes/cm. Also, the “Surface Tension of Water” value in [2] (0.010% salt) turned out to be 42 Dynes/cm; in [2] (0.100% salt), 41 Dynes/cm.
As for `CCCCCCCCCCCC[P+](C)(C)CCCCCCCCCCCC.[Cl-]` [Example 1, Didodecyl Dimethyl Phosphonium Chloride], the “Interfacial Tension of Water-Nujol” value is given as 3 Dynes/cm in [1] (0.001% salt); 3 Dynes/cm in [1] (0.0025% salt); 3 Dynes/cm in [1] (0.005% salt); 3 Dynes/cm in series [1] (0.0075% salt); 3 Dynes/cm in series [1] (0.010% salt); 2 Dynes/cm in series [1] (0.100% salt). In addition, the “activity against Pseudomonas aeruginosa” value in the series with Pseudomonas aeruginosa is on record as “no significant activity”. In addition, the MIC in the series on Pseudomonas aeruginosa (24 h, after 1 day) amounted to 2500 µg/mL; in the series with Staphylococcus aureus (24 h, after 1 day), 1 µg/mL; in the series with Aspergillus niger (168 h, after 7 days) it was 75 µg/mL; in the series on Chlorella vulgaris (168 h, after 7 days) it was 8 µg/mL. Besides, the “Surface Tension of Water” value in series [2] (0.001% salt) is reported as 33 Dynes/cm; in series [2] (0.0025% salt), 33 Dynes/cm; in [2] (0.005% salt), 32 Dynes/cm; in [2] (0.0075% salt), 31 Dynes/cm; in [2] (0.010% salt), 31 Dynes/cm; in [2] (0.100% salt), 29 Dynes/cm.
For the compound `CCCCCCCCCC[P+](C)(C)CCCCCCCCCC.[Cl-]` [Example 3, Didecyl Dimethyl Phosphonium Chloride], the killing at 25 ppm in the series with E. coli (200 ppm hardness, read-out: Reduction of live Bacterial Organisms in water of 200 ppm Hardness) amounted to 99.9%; in the series with E. coli (distilled water, read-out: Reduction of live Bacterial Organisms in Distilled Water), 100%; with Staph. aureus (read-out: Reduction of live Bacterial Organisms in Distilled Water), 100%; in the series on Staph. aureus (read-out: Reduction of live Bacterial Organisms in water of 200 ppm Hardness), 100%. The “activity against Pseudomonas aeruginosa” value in the series with Pseudomonas aeruginosa is recorded as “Particularly outstanding”. In addition, the MIC with Pseudomonas aeruginosa (24 h) amounted to 16 µg/mL; against Escherichia coli, 0.5 µg/mL; with Staphylococcus aureus (48 h), 0.5 µg/mL; with Candida albicans, 0.25 µg/mL; in the series on Aspergillus niger (336 h), 0.25 µg/mL; with Chlorella vulgaris (336 h), 0.125 µg/mL. In the series with Salmonella typhosa, the MIC turned out to be 8 µg/mL. Moreover, the “minimum inhibitory concentration against Aspergillus niger relative to didodecyl dimethyl phosphonium chloride” value with Aspergillus niger (didecyl versus didodecyl compound (Seq. No. 4)) is “three hundred times smaller”. The LD50 in series [3] turned out to be 350 mg/kg. In addition, in the series on mice, the “level of oral toxicity” value is “medium level of oral toxicity”.
With `CCCCCCCC[P+](C)(C)CCCCCCCC.[Cl-]` [Example 4, Dioctyl Dimethyl Phosphonium Chloride], the MIC in the series on Pseudomonas aeruginosa (24 h, after 1 day) was found to be 250 µg/mL; with Staphylococcus aureus (48 h, after 2 days), 0.5 µg/mL; in the series with Aspergillus niger (336 h, after 14 days) it was 7.5 µg/mL; with Chlorella vulgaris (336 h, after 14 days) it was 4 µg/mL.
As to `CCCCCCCC[P+](C)(CC)CCCCCCCC.[Cl-]` [Example 5, Dioctyl Ethyl Methyl Phosphonium Chloride], in the series on Pseudomonas aeruginosa (48 h, after 2 days), the MIC turned out to be 250 µg/mL.
Take `CCCCCCCCCCCC[P+](CC)(CCCCCCCCCCCC)CC(C)C.[Cl-]` [Example 6, Didodecyl Isobutyl Ethyl Phosphonium Chloride]: the “activity against Pseudomonas aeruginosa” value in the series with Pseudomonas aeruginosa was “Particularly outstanding”. The MIC in the series with Pseudomonas aeruginosa (24 h, after 1 day) was determined as 16 µg/mL; with Staphylococcus aureus (24 h, after 1 day) it was 0.5 µg/mL; in the series with Aspergillus niger (336 h, after 14 days), 1 µg/mL; in the series with Chlorella vulgaris (336 h, after 14 days) it was 0.5 µg/mL. For the same compound, the “solubility in toluene” value in “Solubility in toluene” was “highly soluble in toluene”.
Turning to `CCCCCCCCCCCCCCCC[P+](CC)(CCCCCCCCCCCCCCCC)CC(C)C.[Cl-]` [Example 7, Dihexadecyl Isobutyl Ethyl Phosphonium Chloride], in the series with Pseudomonas aeruginosa, the “activity against Pseudomonas aeruginosa” value was “Particularly outstanding”. Moreover, the MIC in the series on Pseudomonas aeruginosa (24 h, after 1 day) amounted to 16 µg/mL; in the series with Staphylococcus aureus (24 h, after 1 day), 0.5 µg/mL; in the series on Aspergillus niger (336 h, after 14 days) it was 0.5 µg/mL; with Chlorella vulgaris (336 h, after 14 days) it was 0.5 µg/mL.
`CCCCCCCCCCCCCCCCCC[P+](CC)(CC)CCCCCCCCCCCCCCCCCC.[Cl-]` [Example 8, Dioctadecyl Diethyl Phosphonium Chloride]: the “microbiocidal activity” value in [4] is recorded as “not highly active microbiocidally”. The MIC is 500 µg/mL in the series on Pseudomonas aeruginosa (48 h), 15 µg/mL with Staphylococcus aureus (48 h), 15 µg/mL with Aspergillus niger (336 h) and 7.5 µg/mL with Chlorella vulgaris (336 h). The LD50 in series [3] came to 2840 mg/kg. Further, the “level of oral toxicity” value with mice is “essential lack of oral toxicity”.
